Data from publication PMC2706954, “Dissecting Structural and Functional Diversity of the Lantibiotic Mersacidin” (Chemistry & Biology, 2009).
In brackets after ≈: the same amount, converted by molar mass.

How the values were obtained:
[1] = tested on: S. aureus R33 MRSA; type: cell-based, Staphylococcus aureus; details: R33
Procedure: (§1) Antibacterial activity of fermentation samples or purified samples was determined by Mueller-Hinton Agar diffusion bioassays using M. luteus ATCC 4698 as the indicator strain. Susceptibility testing (minimum inhibitory concentration [MIC]) for all aerobic organisms, with the exception of S. pneumoniae, was performed following the recommendations of CLSI. Susceptibility testing of S. pneumoniae was performed by two-fold serial dilutions in brain-heart-infusion broth supplemented with 50 μg/ml Ca^2+. Vancomycin was used as a reference antibiotic, and plates were incubated aerobically, with shaking, for 18–20 hr at 37°C with the MIC defined as the lowest concentration of drug that prevented visible growth.

[2] = tested on: S. aureus SH1000; type: cell-based, Staphylococcus aureus; details: SH1000
Procedure: as §1

[3] = tested on: E. faecalis ATCC29212; type: cell-based; details: ATCC29212
Procedure: as §1

[4] = tested on: E. faecium ATCC19579; type: cell-based; details: ATCC19579
Procedure: as §1

[5] = tested on: E. faecium 7131121 VRE; type: cell-based; details: 7131121 VRE
Procedure: as §1

[6] = tested on: M. luteus ATCC4698; type: cell-based, Micrococcus luteus; details: ATCC4698
Procedure: as §1

[7] = tested on: S. pneumoniae BAA-255; type: cell-based, Streptococcus pneumoniae; details: BAA-255
Procedure: as §1

MIC S. aureus R33 MRSA [1] [µg/mL] | MIC S. aureus SH1000 [2] [µg/mL] | MIC E. faecalis ATCC29212 [3] [µg/mL] | MIC E. faecium ATCC19579 [4] [µg/mL] | MIC E. faecium 7131121 VRE [5] [µg/mL] | MIC M. luteus ATCC4698 [6] [µg/mL] | MIC S. pneumoniae BAA-255 [7] | Compound
16 (≈ 8.68 µM) | 32 (≈ 17.4 µM) | 64 (≈ 34.7 µM) | 64 (≈ 34.7 µM) | 64 (≈ 34.7 µM) | 2 (≈ 1.08 µM) | 4 µg/mL (≈ 2.17 µM) | C=C1NC(=O)C2NC(=O)[C@H](CCSC)NC(=O)C(NC(=O)[C@@H]3CSC(C)C(NC(=O)[C@H](Cc4ccccc4)NC(=O)C4NC(=O)[C@@H](N)CSC4C)C(=O)N[C@@H](CC(C)C)C(=O)N4CCC[C@H]4C(=O)NCC(=O)NCC(=O)NCC(=O)NCC(=O)N[C@@H](C(C)C)C(=O)N3)C(C)SC[C@H](NC(=O)[C@H](CCC(=O)O)NC1=O)C(=O)N[C@@H]([C@@H](C)CC)C(=O)NC=CSC2C (stereo partly shown) [L14M]
– | 64 (≈ 34.3 µM) | >64 | >64 | >64 | 16 (≈ 8.57 µM) | 64, >64 μg/ml | C=C1NC(=O)C2NC(=O)[C@H](CC(C)C)NC(=O)C(NC(=O)[C@@H]3CSC(C)C(NC(=O)[C@H](Cc4ccccc4)NC(=O)C4NC(=O)[C@@H](N)CSC4C)C(=O)N[C@@H](CC(C)C)C(=O)N[C@@H](Cc4c[nH]cn4)C(=O)NCC(=O)NCC(=O)NCC(=O)NCC(=O)N[C@@H](C(C)C)C(=O)N3)C(C)SC[C@H](NC(=O)[C@H](CCC(=O)O)NC1=O)C(=O)N[C@@H]([C@@H](C)CC)C(=O)NC=CSC2C (stereo partly shown) [P6H]

Second part, the compound before the results:

Compound | MIC S. aureus R33 MRSA [1] [µg/mL] | MIC S. aureus SH1000 [2] [µg/mL] | MIC E. faecalis ATCC29212 [3] [µg/mL] | MIC E. faecium ATCC19579 [4] [µg/mL] | MIC E. faecium 7131121 VRE [5] [µg/mL] | MIC M. luteus ATCC4698 [6] [µg/mL] | MIC S. pneumoniae BAA-255 [7]
C=C1NC(=O)C2NC(=O)[C@H](CC(C)C)NC(=O)C(NC(=O)[C@@H]3CSC(C)C(NC(=O)[C@H](Cc4ccccc4)NC(=O)C4NC(=O)[C@@H](N)CSC4C)C(=O)N[C@@H](CC(C)C)C(=O)N4CCC[C@H]4C(=O)NCC(=O)N[C@@H](CCC(N)=O)C(=O)NCC(=O)NCC(=O)N[C@@H](C(C)C)C(=O)N3)C(C)SC[C@H](NC(=O)[C@H](CCC(=O)O)NC1=O)C(=O)N[C@@H]([C@@H](C)CC)C(=O)NC=CSC2C (stereo partly shown) [G8Q] | 32 (≈ 16.9 µM) | >64 | >64 | >64 | >64 | 8 (≈ 4.22 µM) | –
C=C1NC(=O)C2NC(=O)[C@H](CC(C)C)NC(=O)C(NC(=O)[C@@H]3CSC(C)C(NC(=O)[C@H](Cc4ccccc4)NC(=O)C4NC(=O)[C@@H](N)CSC4C)C(=O)N[C@@H](CC(C)C)C(=O)N4CCC[C@H]4C(=O)NCC(=O)NCC(=O)NCC(=O)N[C@@H](Cc4ccc(O)cc4)C(=O)N[C@@H](C(C)C)C(=O)N3)C(C)SC[C@H](NC(=O)[C@H](CCC(=O)O)NC1=O)C(=O)N[C@@H]([C@@H](C)CC)C(=O)NC=CSC2C (stereo partly shown) [G10Y] | 64 (≈ 33.1 µM) | >64 | 32 (≈ 16.6 µM) | 64 (≈ 33.1 µM) | >64 | < 4 | < 4 µg/mL
C=C1NC(=O)C2NC(=O)[C@H]([C@@H](C)CC)NC(=O)C(NC(=O)[C@@H]3CSC(C)C(NC(=O)[C@H](Cc4ccccc4)NC(=O)C4NC(=O)[C@@H](N)CSC4C)C(=O)N[C@@H](CC(C)C)C(=O)N4CCC[C@H]4C(=O)NCC(=O)NCC(=O)NCC(=O)NCC(=O)N[C@@H](C(C)C)C(=O)N3)C(C)SC[C@H](NC(=O)[C@H](CCC(=O)O)NC1=O)C(=O)N[C@@H]([C@@H](C)CC)C(=O)NC=CSC2C (stereo partly shown) [L14I] | 8 (≈ 4.38 µM) | 32 (≈ 17.5 µM) | 32 (≈ 17.5 µM) | 16 (≈ 8.76 µM) | – | – | 1 µg/mL (≈ 0.548 µM)
